The target in one series is Cytochrome P450 3A4 (Homo sapiens, UniProt P08684). Put plainly: Inhibition of CYP3A4 (unknown origin) preincubated for 10 mins followed by NADP addition measured after 50 mins. The series is classed as ADME.
Series [1] has as its target T1, Sigma intracellular receptor 2 (Rattus norvegicus, UniProt Q5U3Y7).
T1 sequence (Q5U3Y7 whole entry): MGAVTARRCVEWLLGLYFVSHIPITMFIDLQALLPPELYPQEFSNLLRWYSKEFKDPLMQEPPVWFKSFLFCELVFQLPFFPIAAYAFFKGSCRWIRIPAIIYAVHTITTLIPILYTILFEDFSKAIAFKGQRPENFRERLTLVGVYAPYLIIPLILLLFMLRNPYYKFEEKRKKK
The experiment in a line: Displacement of [3H]DTG from sigma 2 receptor in rat liver membranes measured after 120 mins by scintillation counting method. It is filed as cell membranes, Membrane. (In general: Displacement assays read how much labelled ligand stays bound in the presence of the test substance.)

Series [2] concerns SH-SY5Y. Put plainly: Neuroprotective activity in Abeta42 induced stress human SH-SY5Y cell model measured after 72 hrs by CTG luminescence assay. It is filed as functional, cell-based.
The species entered for series [3] is Danio rerio. Put plainly: Neuroprotective activity against Abeta42 induced zebrafish AD model assessed as reversal of reduction in synaptic integrity at 10 uM measured after 5 days. The series is classed as functional, organism-based. Conditions: time 5.0 day.
For series [4], the species on record is Danio rerio. The experiment in a line: Anti-neuroinflammatory activity in Abeta42 induced zebrafish AD model assessed as reduction in number of activated microglia relative to control. The series is classed as functional. On the set-up: scale not given: the % may be the effect or the level left.
Series [5] deals with SH-SY5Y. Put plainly: Neuroprotective activity in H2O2 induced stress human SH-SY5Y cell model measured after 48 hrs by MTT assay. It is filed as functional, cell-based. A general note: Tetrazolium assays rely on reduction of a dye to a coloured formazan, in cell work by metabolically active cells.
For another series, the target named is Cholinesterase (Homo sapiens, UniProt P06276). The experiment in a line: Inhibition of human recombinant BuChe using butyrylthiocholine iodide as substrate incubated for 10 mins by DTNB reagent based Ellman's method. (In general: In Ellman's method for cholinesterases, released thiocholine reacts with DTNB.)
A further series addresses Cytochrome P450 2C9 (Homo sapiens, UniProt P11712). Put plainly: Inhibition of CYP2C9 (unknown origin) preincubated for 10 mins followed by NADP addition measured after 50 mins. The series is classed as ADME.
Series [6] deals with Glutamate receptor ionotropic, NMDA 2B (Homo sapiens, UniProt Q13224). The experiment in a line: Displacement of [3H]ifenprodil from recombinant human GluN2B NMDA receptor (unknown origin) expressed in dexamethasone-induced mouse L-M(TK-) cell after 120 mins by microbeta scintillation counting method. It is filed as cell-based.
For series [7], the target named is Sigma non-opioid intracellular receptor 1 (Cavia porcellus, UniProt Q60492). It is filed as cell membranes, Brain, Membrane.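 Also: radioligand displacement of [3H]-(+)-pentazocine binding to sigma1 receptor in guinea pig brain membranes, read by scintillation counting after a 120 min incubation.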
Description: Displacement of [3H]-(+)-pentazocine from sigma1 receptor in guinea pig brain membrane measured after 120 mins by scintillation counting method
A short description of series [8]: Selectivity index, ratio of Ki for displacement of [3H]-(+)-pentazocine from sigma1 receptor in guinea pig brain membrane to Ki for displacement of [3H]DTG from sigma 2 receptor in rat liver membranes. The series is classed as cell membranes.
A further series concerns the target T2, P2X purinoceptor 7 (Homo sapiens, UniProt Q99572).
T2 sequence (Q99572 whole entry): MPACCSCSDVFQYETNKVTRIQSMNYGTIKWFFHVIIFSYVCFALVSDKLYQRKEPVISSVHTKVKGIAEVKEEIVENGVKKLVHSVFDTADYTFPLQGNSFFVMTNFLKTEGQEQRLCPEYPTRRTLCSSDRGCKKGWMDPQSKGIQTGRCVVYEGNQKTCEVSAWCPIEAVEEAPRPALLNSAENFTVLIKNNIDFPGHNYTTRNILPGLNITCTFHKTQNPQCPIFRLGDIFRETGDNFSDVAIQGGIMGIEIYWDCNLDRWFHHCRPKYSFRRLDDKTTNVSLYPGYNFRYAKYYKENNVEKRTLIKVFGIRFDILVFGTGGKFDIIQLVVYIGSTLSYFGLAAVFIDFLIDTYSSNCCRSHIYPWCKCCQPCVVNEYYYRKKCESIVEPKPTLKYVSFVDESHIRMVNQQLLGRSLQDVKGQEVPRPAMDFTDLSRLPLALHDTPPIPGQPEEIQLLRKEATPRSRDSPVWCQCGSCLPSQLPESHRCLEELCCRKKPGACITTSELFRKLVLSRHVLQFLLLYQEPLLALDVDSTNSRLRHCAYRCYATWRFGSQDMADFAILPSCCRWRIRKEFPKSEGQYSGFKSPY
Put plainly: Antagonist activity at human P2X7 receptor expressed in HEK293 cells assessed as reduction in YO-PRO-1 iodide dye uptake preincubated for 30 mins followed by YO-PRO-1 iodide addition and measured after 120 mins by fluorescence plate reader analysis. It is filed as cell-based.

A further series concerns the target Cytochrome P450 2D6 (Homo sapiens, UniProt P10635). Put plainly: Inhibition of CYP2D6 (unknown origin) preincubated for 10 mins followed by NADP addition measured after 50 mins. It is filed as ADME.
For a further series, the target named is Acetylcholinesterase (Homo sapiens, UniProt P22303). The experiment in a line: Inhibition of human recombinant AChe using acetylthiocholine iodide as substrate incubated for 10 mins by DTNB reagent based Ellman's method.
Series [9] in a line: Permeability of the compound across blood brain barrier at pH 7.4 incubated for 16 hrs by PAMPA assay. It is filed as ADME. Conditions: read-out: permeability.
Series [10] can be described thus: Selectivity index, ratio of Ki for displacement of [3H]DTG from sigma 2 receptor in rat liver membranes to Ki for displacement of [3H]-(+)-pentazocine from sigma1 receptor in guinea pig brain membrane. The series is classed as cell membranes.
A short description of series [11]: Permeability of the compound at pH 6.8 by HDM-PAMPA assay. The series is classed as ADME. The settings on record: read-out: permeability.
The nature of series [12]: Cytotoxicity against HEK293 cells assessed as reduction in cell viability at 10 to 80 uM measured after 24 hrs by CTG- luminescence assay. The series is classed as toxicity, cell-based. The settings on record: human.

Experimental findings from ChEMBL document CHEMBL5113531, “Discovery of Potent Cholinesterase Inhibition-Based Multi-Target-Directed Lead Compounds for Synaptoprotection in Alzheimer's Disease” (J Med Chem, 2022) are described below.

Activity calls are given as the source filed them. The rule behind the calls is not given here. Some results are limits rather than exact numbers.

Sequence of Glutamate receptor ionotropic, NMDA 2B (Q13224 whole entry): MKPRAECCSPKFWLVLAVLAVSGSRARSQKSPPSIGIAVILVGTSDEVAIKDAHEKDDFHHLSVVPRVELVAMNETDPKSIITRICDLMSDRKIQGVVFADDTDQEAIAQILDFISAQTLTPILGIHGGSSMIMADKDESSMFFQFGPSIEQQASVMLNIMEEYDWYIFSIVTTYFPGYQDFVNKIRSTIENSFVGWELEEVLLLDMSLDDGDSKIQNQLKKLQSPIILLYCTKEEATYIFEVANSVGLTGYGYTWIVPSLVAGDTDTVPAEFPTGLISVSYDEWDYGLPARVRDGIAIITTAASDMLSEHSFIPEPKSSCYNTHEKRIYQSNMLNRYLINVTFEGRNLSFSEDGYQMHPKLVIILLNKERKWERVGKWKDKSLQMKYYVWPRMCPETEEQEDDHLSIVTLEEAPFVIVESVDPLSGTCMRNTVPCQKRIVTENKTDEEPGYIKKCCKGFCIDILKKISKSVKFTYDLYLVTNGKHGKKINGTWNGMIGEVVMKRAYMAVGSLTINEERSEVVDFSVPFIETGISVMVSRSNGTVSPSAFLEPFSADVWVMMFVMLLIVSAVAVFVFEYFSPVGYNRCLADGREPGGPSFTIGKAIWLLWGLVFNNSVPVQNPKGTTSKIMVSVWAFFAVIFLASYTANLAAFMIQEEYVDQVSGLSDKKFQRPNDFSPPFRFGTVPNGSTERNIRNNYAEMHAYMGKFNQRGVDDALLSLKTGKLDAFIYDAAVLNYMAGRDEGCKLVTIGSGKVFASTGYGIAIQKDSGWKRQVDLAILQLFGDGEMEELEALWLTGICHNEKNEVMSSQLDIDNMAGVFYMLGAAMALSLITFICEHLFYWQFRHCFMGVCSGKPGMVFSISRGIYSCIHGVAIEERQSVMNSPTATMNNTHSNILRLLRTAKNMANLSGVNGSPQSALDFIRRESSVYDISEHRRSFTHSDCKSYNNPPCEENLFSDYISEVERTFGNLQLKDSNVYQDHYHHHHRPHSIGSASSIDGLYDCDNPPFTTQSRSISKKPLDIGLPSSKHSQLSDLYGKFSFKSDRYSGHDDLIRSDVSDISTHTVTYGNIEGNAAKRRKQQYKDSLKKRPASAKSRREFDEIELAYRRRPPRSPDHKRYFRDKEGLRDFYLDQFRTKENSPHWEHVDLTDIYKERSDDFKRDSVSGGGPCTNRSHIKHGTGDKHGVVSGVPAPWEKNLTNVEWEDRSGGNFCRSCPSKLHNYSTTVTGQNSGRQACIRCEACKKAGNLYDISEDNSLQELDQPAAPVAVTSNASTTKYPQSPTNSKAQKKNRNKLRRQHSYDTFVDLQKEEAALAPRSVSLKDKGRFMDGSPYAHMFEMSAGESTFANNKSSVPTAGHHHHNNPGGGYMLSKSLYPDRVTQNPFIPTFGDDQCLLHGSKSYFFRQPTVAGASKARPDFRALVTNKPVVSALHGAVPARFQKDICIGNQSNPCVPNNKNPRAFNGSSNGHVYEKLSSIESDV
Sequence of Acetylcholinesterase (P22303 whole entry): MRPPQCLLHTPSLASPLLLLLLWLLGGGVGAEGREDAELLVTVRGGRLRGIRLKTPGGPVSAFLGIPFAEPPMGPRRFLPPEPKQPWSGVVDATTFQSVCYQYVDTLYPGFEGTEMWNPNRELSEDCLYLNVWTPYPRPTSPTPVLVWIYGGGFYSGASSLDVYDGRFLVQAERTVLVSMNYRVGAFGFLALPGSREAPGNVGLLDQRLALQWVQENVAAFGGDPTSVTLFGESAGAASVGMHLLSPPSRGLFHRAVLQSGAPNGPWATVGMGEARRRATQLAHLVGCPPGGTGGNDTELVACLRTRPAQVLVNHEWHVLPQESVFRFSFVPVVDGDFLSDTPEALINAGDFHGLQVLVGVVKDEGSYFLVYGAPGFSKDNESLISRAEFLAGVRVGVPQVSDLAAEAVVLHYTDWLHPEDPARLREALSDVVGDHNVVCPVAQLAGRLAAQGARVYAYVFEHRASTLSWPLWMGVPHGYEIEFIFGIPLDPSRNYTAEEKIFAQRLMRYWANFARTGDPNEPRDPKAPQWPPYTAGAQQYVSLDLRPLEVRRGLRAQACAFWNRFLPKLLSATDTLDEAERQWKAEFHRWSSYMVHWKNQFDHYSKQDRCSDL
Sequence of Sigma non-opioid intracellular receptor 1 (Q60492 whole entry): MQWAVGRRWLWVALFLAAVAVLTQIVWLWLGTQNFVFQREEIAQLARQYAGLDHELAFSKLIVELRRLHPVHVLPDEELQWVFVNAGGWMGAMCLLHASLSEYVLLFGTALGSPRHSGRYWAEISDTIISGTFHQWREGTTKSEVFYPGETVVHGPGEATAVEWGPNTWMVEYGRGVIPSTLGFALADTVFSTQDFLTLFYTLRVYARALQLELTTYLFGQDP
Sequence of Cholinesterase (P06276 whole entry): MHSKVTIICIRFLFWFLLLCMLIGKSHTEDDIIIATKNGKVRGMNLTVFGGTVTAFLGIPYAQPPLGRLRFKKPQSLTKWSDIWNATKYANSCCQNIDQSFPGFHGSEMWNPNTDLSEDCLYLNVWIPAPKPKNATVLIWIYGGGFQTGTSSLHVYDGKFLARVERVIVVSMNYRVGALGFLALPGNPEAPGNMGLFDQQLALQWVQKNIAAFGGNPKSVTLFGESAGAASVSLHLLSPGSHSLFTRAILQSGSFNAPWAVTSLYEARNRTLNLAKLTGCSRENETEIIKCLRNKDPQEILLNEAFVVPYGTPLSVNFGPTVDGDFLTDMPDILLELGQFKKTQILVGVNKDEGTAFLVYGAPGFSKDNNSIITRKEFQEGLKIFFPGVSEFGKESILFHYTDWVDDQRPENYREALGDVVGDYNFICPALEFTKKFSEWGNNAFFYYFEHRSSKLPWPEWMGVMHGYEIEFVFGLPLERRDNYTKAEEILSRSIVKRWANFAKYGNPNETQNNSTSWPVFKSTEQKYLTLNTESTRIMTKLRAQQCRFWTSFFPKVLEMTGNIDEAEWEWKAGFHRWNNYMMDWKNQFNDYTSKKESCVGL
Sequence of Cytochrome P450 2C9 (P11712 whole entry): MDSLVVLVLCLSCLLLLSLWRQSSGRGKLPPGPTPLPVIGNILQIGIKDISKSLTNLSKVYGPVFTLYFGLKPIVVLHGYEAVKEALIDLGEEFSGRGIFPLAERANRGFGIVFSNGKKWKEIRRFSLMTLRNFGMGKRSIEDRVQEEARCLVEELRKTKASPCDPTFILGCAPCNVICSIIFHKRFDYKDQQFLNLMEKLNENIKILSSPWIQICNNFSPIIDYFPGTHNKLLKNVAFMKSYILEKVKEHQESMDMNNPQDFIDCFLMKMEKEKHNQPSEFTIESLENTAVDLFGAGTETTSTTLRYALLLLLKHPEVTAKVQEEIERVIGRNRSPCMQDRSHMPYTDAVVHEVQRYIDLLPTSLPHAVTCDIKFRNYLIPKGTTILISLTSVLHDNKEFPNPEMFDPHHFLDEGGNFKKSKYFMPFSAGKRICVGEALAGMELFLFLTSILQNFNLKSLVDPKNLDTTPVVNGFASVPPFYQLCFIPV
Sequence of Cytochrome P450 3A4 (P08684 whole entry): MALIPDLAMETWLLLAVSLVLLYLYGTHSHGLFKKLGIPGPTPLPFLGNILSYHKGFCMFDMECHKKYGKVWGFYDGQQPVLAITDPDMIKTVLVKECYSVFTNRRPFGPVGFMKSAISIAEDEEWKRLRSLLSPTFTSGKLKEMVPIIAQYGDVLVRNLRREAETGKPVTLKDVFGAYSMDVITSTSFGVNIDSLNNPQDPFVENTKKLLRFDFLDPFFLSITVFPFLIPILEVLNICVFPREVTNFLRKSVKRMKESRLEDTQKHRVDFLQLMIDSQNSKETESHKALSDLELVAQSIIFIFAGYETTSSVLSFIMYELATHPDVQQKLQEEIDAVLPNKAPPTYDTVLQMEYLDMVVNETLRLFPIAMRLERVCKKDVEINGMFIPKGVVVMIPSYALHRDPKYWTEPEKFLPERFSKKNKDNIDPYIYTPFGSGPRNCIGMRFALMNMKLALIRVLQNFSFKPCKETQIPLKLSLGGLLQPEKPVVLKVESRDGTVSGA
Sequence of Cytochrome P450 2D6 (P10635 whole entry): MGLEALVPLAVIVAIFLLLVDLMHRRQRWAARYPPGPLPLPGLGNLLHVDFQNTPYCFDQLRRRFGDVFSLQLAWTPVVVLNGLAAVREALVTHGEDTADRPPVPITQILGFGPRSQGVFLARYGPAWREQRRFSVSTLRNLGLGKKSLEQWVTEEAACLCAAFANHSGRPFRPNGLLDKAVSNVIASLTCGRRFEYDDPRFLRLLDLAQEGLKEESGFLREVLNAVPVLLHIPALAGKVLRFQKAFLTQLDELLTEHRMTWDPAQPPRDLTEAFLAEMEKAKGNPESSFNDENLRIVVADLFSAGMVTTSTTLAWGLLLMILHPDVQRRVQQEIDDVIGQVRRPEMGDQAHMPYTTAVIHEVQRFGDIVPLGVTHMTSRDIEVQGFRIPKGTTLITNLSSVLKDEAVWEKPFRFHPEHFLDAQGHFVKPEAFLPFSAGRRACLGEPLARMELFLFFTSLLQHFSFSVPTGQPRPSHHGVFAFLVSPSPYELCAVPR

With `Cc1cccc2sc(NC(=O)CCN3CCN(c4ccncc4)CC3)nc12`, the IC50 at Cytochrome P450 3A4 was 1140 nM; on Cholinesterase, over 40000 nM; against Cytochrome P450 2C9, 2460 nM; at P2X purinoceptor 7, 1130 nM; at Cytochrome P450 2D6, 13600 nM; on Acetylcholinesterase, 18200 nM. Moreover, the values for the Ki in series [1], in series [6] and in [7] were 1700 nM, 184 nM and 9600 nM, respectively. The outcome with SH-SY5Y [2], in the series listed under Danio rerio [3] and with SH-SY5Y [5] was Active. Moreover, the Activity in the series listed under Danio rerio [4] was 25.9%. Moreover, the Ratio Ki in series [8] was 5.65.
Take `Cc1cccc2sc(NC(=O)CCN3CCN(CCCN(C)C)CC3)nc12`: the Papp at 16 h in series [9] is 4 ×10⁻⁶ cm/s. The Ki in [1] is over 1000 nM; in series [6] it was 1800 nM; in [7], 570 nM. Further, the Ratio Ki in series [10] is over 1.75. For the same compound, the outcome in the series with SH-SY5Y [2], in the series listed under Danio rerio [3] and with SH-SY5Y [5] was Active. Also, the Activity in the series filed under Danio rerio [4] turned out to be 33.1%. Moreover, the values for the IC50 on Cholinesterase, on P2X purinoceptor 7 and on Acetylcholinesterase were over 40000 nM, 18100 nM and 410 nM, respectively. The Papp in series [11] worked out at 4.5 ×10⁻⁶ cm/s. Also, the IC50 at 24 h in [12] was 20500 nM.

By IC50 is commonly meant the concentration at which inhibition is half-maximal. As usually defined, the Ki is a measure of affinity in units of concentration, obtained from inhibition or displacement.
